pIC50: −log10 of the molar value.
Each molecule was assayed against T1, Human Factor XIIa (hFXIIa) (Homo sapiens, UniProt P00748) (assay: Determination of Human Factor XIIa (hFXIIa) inhibition, fluorogenic substrate IC50 assay). Conditions: fluorogenic substrate H-DPro-Phe-Arg-AFC at Km, 25° C., read-out: Human FXIIa IC50.
T1 construct: purchased Enzyme Research Laboratories
T1 sequence (P00748 373-615 limits assumed): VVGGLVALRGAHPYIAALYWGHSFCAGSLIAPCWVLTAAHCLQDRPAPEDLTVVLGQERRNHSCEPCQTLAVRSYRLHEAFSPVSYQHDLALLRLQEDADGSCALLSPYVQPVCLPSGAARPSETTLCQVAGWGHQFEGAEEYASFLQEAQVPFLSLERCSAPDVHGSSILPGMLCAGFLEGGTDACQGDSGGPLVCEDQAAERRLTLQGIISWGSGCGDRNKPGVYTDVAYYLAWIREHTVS
T1 sequence (P00748 20-372 partner limits assumed): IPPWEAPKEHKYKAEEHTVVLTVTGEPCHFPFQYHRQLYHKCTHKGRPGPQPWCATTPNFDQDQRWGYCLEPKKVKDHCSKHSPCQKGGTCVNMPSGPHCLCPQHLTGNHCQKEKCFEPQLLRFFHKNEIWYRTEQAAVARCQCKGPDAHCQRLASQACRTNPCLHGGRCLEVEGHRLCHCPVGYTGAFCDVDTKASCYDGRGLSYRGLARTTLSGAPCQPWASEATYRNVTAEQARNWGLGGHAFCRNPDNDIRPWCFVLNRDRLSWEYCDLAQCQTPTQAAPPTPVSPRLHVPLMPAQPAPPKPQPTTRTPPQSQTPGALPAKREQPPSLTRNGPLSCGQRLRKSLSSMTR
Assay type: biochemical
Description: Determination of Human Factor XIIa (hFXIIa) inhibition
The Km for the cleavage of the substrate by hFXIIa was determined by standard transformation of the Michaelis-Menten equation, with subsequent inhibition assays performed at substrate Km concentration.

SMILES	pIC50
CN(C)C(=O)c1ccnc(N2CCc3c(C(=O)NCC4CC4)nn(-c4cccc(Cl)c4)c3C2=O)c1 [Example 1273, 1-(3-chlorophenyl)-N-(cyclopropylmethyl)-6-(4-(dimethylcarbamoyl)pyridin-2-yl)-7-oxo-4,5,6,7-tetrahydro-1H-pyrazolo[3,4-c]pyridine-3-carboxamide]	5.00 to 5.52
CN1CCc2ccc(N3CCc4c(C(=O)NC[C@H]5C[C@H](O)C5)nn(-c5cccc(Cl)c5)c4C3=O)cc2C1=O [Example 1274, 1-(3-chlorophenyl)-N-(((1r,3r)-3-hydroxycyclobutyl)methyl)-6-(2-methyl-1-oxo-1,2,3,4-tetrahydroisoquinolin-7-yl)-7-oxo-4,5,6,7-tetrahydro-1H-pyrazolo[3,4-c]pyridine-3-carboxamide]	6.00 to 6.52
Cc1cc(CNC(=O)c2nn(-c3cccc(Cl)c3)c3c2CCN(c2ccc4c(c2)N(C)C(=O)C4(C)C)C3=O)nn1C [Example 1276, 1-(3-chlorophenyl)-N-((1,5-dimethyl-1H-pyrazol-3-yl)methyl)-7-oxo-6-(1,3,3-trimethyl-2-oxoindolin-6-yl)-4,5,6,7-tetrahydro-1H-pyrazolo[3,4-c]pyridine-3-carboxamide]	5.00 to 5.52
CN1C(=O)C(C)(C)c2ccc(N3CCc4c(C(=O)NCC5CC5)nn(-c5cccc(Cl)c5)c4C3=O)cc21 [Example 1277, 1-(3-chlorophenyl)-N-(cyclopropylmethyl)-7-oxo-6-(1,3,3-trimethyl-2-oxoindolin-6-yl)-4,5,6,7-tetrahydro-1H-pyrazolo[3,4-c]pyridine-3-carboxamide]	4.40 to 5.00
CN(C)C(=O)c1cc(N2CCc3c(C(=O)NCC4CC4)nn(-c4cccc(Cl)c4)c3C2=O)ccn1 [Example 1278, 1-(3-chlorophenyl)-N-(cyclopropylmethyl)-6-(2-(dimethylcarbamoyl)pyridin-4-yl)-7-oxo-4,5,6,7-tetrahydro-1H-pyrazolo[3,4-c]pyridine-3-carboxamide]	5.00 to 5.52
CN(C)C(=O)c1cncc(N2CCc3c(C(=O)NCC4CC4)nn(-c4cccc(Cl)c4)c3C2=O)c1 [Example 1279, 1-(3-chlorophenyl)-N-(cyclopropylmethyl)-6-(5-(dimethylcarbamoyl)pyridin-3-yl)-7-oxo-4,5,6,7-tetrahydro-1H-pyrazolo[3,4-c]pyridine-3-carboxamide]	4.40 to 5.00
CN1CCc2ccc(N3CCc4c(C(=O)NCC56CCC(CO)(C5)O6)nn(-c5cccc(Cl)c5)c4C3=O)cc2C1=O (stereo not shown) [Example 1280, 1-(3-chlorophenyl)-N-((4-(hydroxymethyl)-5-oxabicyclo[2.1.1]hexan-1-yl)methyl)-6-(2-methyl-1-oxo-1,2,3,4-tetrahydroisoquinolin-7-yl)-7-oxo-4,5,6,7-tetrahydro-1H-pyrazolo[3,4-c]pyridine-3-carboxamide]	6.00 to 6.52
CN(C)C(=O)c1cc(N2CCc3c(C(=O)NCC4CC4)nn(-c4cccc(Cl)c4)c3C2=O)ccc1F [Example 1281, 1-(3-chlorophenyl)-N-(cyclopropylmethyl)-6-(3-(dimethylcarbamoyl)-4-fluorophenyl)-7-oxo-4,5,6,7-tetrahydro-1H-pyrazolo[3,4-c]pyridine-3-carboxamide]	5.00 to 5.52
CN1CCc2ccc(N3CCc4c(C(=O)NCC56CC(CO)(CCO5)C6)nn(-c5cccc(Cl)c5)c4C3=O)cc2C1=O [Example 1283, 1-(3-chlorophenyl)-N-((5-(hydroxymethyl)-2-oxabicyclo[3.1.1]heptan-1-yl)methyl)-6-(2-methyl-1-oxo-1,2,3,4-tetrahydroisoquinolin-7-yl)-7-oxo-4,5,6,7-tetrahydro-1H-pyrazolo[3,4-c]pyridine-3-carboxamide]	6.00 to 6.52
CCOC(=O)c1nn(-c2cccc(Cl)c2)c2c1CCN(c1ccc3c(c1)C(=O)N(C)CC3)C2=O [Example 1284, ethyl 1-(3-chlorophenyl)-6-(2-methyl-1-oxo-1,2,3,4-tetrahydroisoquinolin-7-yl)-7-oxo-4,5,6,7-tetrahydro-1H-pyrazolo[3,4-c]pyridine-3-carboxylate]	6.00 to 6.52
CCN(CC)C(=O)c1cccc(N2CCc3c(C(=O)NCC4CC4)nn(-c4cccc(Cl)c4)c3C2=O)c1 [Example 1286, 1-(3-chlorophenyl)-N-(cyclopropylmethyl)-6-(3-(diethylcarbamoyl)phenyl)-7-oxo-4,5,6,7-tetrahydro-1H-pyrazolo[3,4-c]pyridine-3-carboxamide]	4.40 to 5.00
Cc1cc(CNC(=O)c2nn(-c3cccc(Cl)c3)c3c2CCN(c2ccc4c(c2)C(=O)N(CCO)CCO4)C3=O)nn1C [Example 1288, 1-(3-Chlorophenyl)-N-[(1,5-dimethylpyrazol-3-yl)methyl]-6-[4-(2-hydroxyethyl)-5-oxo-2,3-dihydro-1,4-benzoxazepin-7-yl]-7-oxo-4,5-dihydropyrazolo[3,4-c]pyridine-3-carboxamide]	7.00 to 8.00
O=C(NCC1CC1)c1nn(-c2cccc(Cl)c2)c2c1CCN(c1ccc3c(c1)C(=O)N(CCO)CCO3)C2=O [Example 1289, 1-(3-chlorophenyl)-N-(cyclopropylmethyl)-6-(4-(2-hydroxyethyl)-5-oxo-2,3,4,5-tetrahydrobenzo[f][1,4]oxazepin-7-yl)-7-oxo-4,5,6,7-tetrahydro-1H-pyrazolo[3,4-c]pyridine-3-carboxamide]	6.52 to 7.00
Cc1cc(CNC(=O)c2nn(-c3cccc(Cl)c3)c3c2CCN(c2ccc4c(c2)C(=O)N(C2COC2)CC4)C3=O)nn1C [Example 1290, 1-(3-chlorophenyl)-N-((1,5-dimethyl-1H-pyrazol-3-yl)methyl)-6-(2-(oxetan-3-yl)-1-oxo-1,2,3,4-tetrahydroisoquinolin-7-yl)-7-oxo-4,5,6,7-tetrahydro-1H-pyrazolo[3,4-c]pyridine-3-carboxamide]	6.52 to 7.00
O=C(NCC1CC1)c1nn(-c2cccc(Cl)c2)c2c1CCN(c1ccc3c(c1)C(=O)N(CC1CCCO1)CC3)C2=O (stereo not shown) [Example 1292, 1-(3-chlorophenyl)-N-(cyclopropylmethyl)-7-oxo-6-(1-oxo-2-((tetrahydrofuran-2-yl)methyl)-1,2,3,4-tetrahydroisoquinolin-7-yl)-4,5,6,7-tetrahydro-1H-pyrazolo[3,4-c]pyridine-3-carboxamide]	6.00 to 6.52
Cc1cc(CNC(=O)c2nn(-c3cccc(Cl)c3)c3c2CCN(c2ccc4c(c2)C(=O)N(CC2CCCO2)CC4)C3=O)nn1C (stereo not shown) [Example 1293, 1-(3-chlorophenyl)-N-((1,5-dimethyl-1H-pyrazol-3-yl)methyl)-7-oxo-6-(1-oxo-2-((tetrahydrofuran-2-yl)methyl)-1,2,3,4-tetrahydroisoquinolin-7-yl)-4,5,6,7-tetrahydro-1H-pyrazolo[3,4-c]pyridine-3-carboxamide]	6.52 to 7.00
O=C(NCC1CC1)c1nn(-c2cccc(Cl)c2)c2c1CCN(c1ccc3c(c1)C(=O)N(CCO)CCC3)C2=O [Example 1294, 1-(3-chlorophenyl)-N-(cyclopropylmethyl)-6-(2-(2-hydroxyethyl)-1-oxo-2,3,4,5-tetrahydro-1H-benzo[c]azepin-8-yl)-7-oxo-4,5,6,7-tetrahydro-1H-pyrazolo[3,4-c]pyridine-3-carboxamide]	6.52 to 7.00
CN(C)C(=O)c1csc(N2CCc3c(C(=O)NCC4CC4)nn(-c4cccc(Cl)c4)c3C2=O)c1 [Example 1295, 1-(3-chlorophenyl)-N-(cyclopropylmethyl)-6-(4-(dimethylcarbamoyl)thiophen-2-yl)-7-oxo-4,5,6,7-tetrahydro-1H-pyrazolo[3,4-c]pyridine-3-carboxamide]	4.40 to 5.00
CC(C)n1ccc(CNC(=O)c2nn(-c3cccc(Cl)c3)c3c2CCN(c2ccc4c(c2)C(=O)N(C)CC4)C3=O)n1 [Example 1296, 1-(3-chlorophenyl)-N-((1-isopropyl-1H-pyrazol-3-yl)methyl)-6-(2-methyl-1-oxo-1,2,3,4-tetrahydroisoquinolin-7-yl)-7-oxo-4,5,6,7-tetrahydro-1H-pyrazolo[3,4-c]pyridine-3-carboxamide]	6.52 to 7.00
CCNC(=O)c1nn(-c2cccc(Cl)c2)c2c1CCN(c1ccc3c(c1)C(=O)N(C)CC3)C2=O [Example 1297, 1-(3-chlorophenyl)-N-ethyl-6-(2-methyl-1-oxo-1,2,3,4-tetrahydroisoquinolin-7-yl)-7-oxo-4,5,6,7-tetrahydro-1H-pyrazolo[3,4-c]pyridine-3-carboxamide]	6.00 to 6.52
CN(C)C(=O)c1cnnc(N2CCc3c(C(=O)NCC4CC4)nn(-c4cccc(Cl)c4)c3C2=O)c1 [Example 1298, 1-(3-chlorophenyl)-N-(cyclopropylmethyl)-6-(5-(dimethylcarbamoyl)pyridazin-3-yl)-7-oxo-4,5,6,7-tetrahydro-1H-pyrazolo[3,4-c]pyridine-3-carboxamide]	5.00 to 5.52
O=C(NCC1CC1)c1nn(-c2cccc(Cl)c2)c2c1CCN(c1ccc3c(c1)CN(CCO)CC3(F)F)C2=O [Example 1300, 1-(3-chlorophenyl)-N-(cyclopropylmethyl)-6-(4,4-difluoro-2-(2-hydroxyethyl)-1,2,3,4-tetrahydroisoquinolin-7-yl)-7-oxo-4,5,6,7-tetrahydro-1H-pyrazolo[3,4-c]pyridine-3-carboxamide]	5.00 to 5.52

Reference: US20260132132A1, “3A,4,5,6-TETRAHYDRO-1 H-PYRAZOLO[3,4-C]PYRIDIN-7(7AH)-ONE DERIVATIVES AS FACTOR XIIA INHIBITORS” (KALVISTA PHARMACEUTICALS LIMITED, priority 2022, published 2026)
